Source: article PMC6881293, “Nanomolar-potency ‘co-potentiator’ therapy for cystic fibrosis caused by a defined subset of minimal function CFTR mutants” (Scientific Reports, 2019)

Tests used:
G551D-CFTR = test system: G551D-CFTR; parameters: method as in PMID 29903467; conditions: previously showed; cited from earlier work
I1234del-CFTR = biological target: T1, I1234del-CFTR (Homo sapiens, UniProt P13569, DEL1234-1239); assay: Short-circuit current in FRT cells expressing I1234del-CFTR; assay type: cell-based; conditions: I1234del-CFTR FRT cells; 20 µM forskolin, 5 µM VX-770, 20 µM ASP-11; range stated jointly for I1234del- and Q1313X-CFTR
T1 construct: introduced into full-length CFTR cDNA in the vector pcDNA3.1/Zeo (+); expressed in transfected cells
T1 sequence (P13569 with tags, fused parts or gaps DEL1234-1239): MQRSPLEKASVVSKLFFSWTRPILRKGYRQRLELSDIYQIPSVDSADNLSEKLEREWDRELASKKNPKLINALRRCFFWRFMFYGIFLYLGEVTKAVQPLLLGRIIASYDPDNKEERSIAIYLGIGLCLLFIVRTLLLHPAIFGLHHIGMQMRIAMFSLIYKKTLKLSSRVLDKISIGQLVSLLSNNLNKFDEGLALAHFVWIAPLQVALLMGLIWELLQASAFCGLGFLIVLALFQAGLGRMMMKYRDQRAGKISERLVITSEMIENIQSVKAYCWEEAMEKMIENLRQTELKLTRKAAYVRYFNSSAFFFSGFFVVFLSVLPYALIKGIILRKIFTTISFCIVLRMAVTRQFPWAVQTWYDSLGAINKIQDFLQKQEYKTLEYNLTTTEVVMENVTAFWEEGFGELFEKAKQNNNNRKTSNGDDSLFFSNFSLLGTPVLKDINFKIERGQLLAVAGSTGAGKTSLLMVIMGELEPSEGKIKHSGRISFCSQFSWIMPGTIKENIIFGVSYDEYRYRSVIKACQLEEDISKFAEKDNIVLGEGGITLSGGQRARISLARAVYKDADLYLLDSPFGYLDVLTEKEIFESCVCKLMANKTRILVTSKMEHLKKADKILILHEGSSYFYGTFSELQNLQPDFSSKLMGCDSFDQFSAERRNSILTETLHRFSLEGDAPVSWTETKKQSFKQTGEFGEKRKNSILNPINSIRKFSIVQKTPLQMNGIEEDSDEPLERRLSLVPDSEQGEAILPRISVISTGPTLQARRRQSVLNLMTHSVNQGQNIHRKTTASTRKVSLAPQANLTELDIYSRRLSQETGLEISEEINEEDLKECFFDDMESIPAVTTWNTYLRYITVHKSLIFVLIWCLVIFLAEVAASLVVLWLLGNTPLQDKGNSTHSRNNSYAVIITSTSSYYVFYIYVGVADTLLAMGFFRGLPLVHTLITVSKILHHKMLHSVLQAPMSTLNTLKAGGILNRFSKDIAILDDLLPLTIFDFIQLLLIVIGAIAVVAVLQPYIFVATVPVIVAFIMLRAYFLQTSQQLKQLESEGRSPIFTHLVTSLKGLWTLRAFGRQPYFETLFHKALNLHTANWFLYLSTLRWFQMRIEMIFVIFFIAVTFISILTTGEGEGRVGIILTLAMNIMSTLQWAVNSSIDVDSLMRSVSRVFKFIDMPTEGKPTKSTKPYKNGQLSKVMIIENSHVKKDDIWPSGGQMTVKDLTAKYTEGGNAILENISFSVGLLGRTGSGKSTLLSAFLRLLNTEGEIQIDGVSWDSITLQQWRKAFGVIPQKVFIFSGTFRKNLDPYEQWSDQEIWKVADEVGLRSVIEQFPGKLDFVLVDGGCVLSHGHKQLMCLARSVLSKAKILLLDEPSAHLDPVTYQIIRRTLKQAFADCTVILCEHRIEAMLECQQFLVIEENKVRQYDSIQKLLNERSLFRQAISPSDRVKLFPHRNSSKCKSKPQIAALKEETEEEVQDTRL
Method: Figure 1 Co-potentiator ASP-11 activity in minimal function CFTR mutants in transfected FRT cells. (A) Structure of ASP-11. (B) Location of minimal function CFTR mutants studied herein. (C) Representative short-circuit current data in FRT cells expressing I1234del-CFTR, Q1313X-CFTR and S492F-CFTR in response to 20 µM forskolin (fsk), 5 µM VX-770, 20 µM ASP-11 and 10 μM CFTRinh-172. As indicated, cells were treated with 3 µM VX-809 for 18–24 h prior to measurements. (n = 3) (D). Representative short-circuit current data in FRT cells expressing predicted W1282X-CFTR read-through products W1282L-CFTR, W1282R-CFTR and W1282C-CFTR (without and with VX-809 pretreatment) (n = 3). MSD, membrane spanning domain; NBD, nucleotide binding domain; R, regulatory domain.
(§1) As shown in Fig. 1C and summarized in Fig. 2, ASP-11 acted in synergy with VX-770 to increase chloride current in FRT cells expressing the NBD2 mutations I1234del- and Q1313X-CFTR by ~3–9-fold compared to VX-770. I1234del- and Q1313X-CFTR-expressing cells were also treated with VX-809 for 24 hours (to consider the effect of available CFTR therapeutics) with 2–3-fold greater currents observed.
Short-circuit current was measured on cells cultured on Snapwell clear permeable supports (Corning) as described[10],[11]. […]

W1282X-CFTR [1] = biological target: T2, W1282X-CFTR (Homo sapiens, UniProt P13569); parameters: method as in PMID 27895116, PMID 29903467; conditions: transfected FRT cells expressing CFTR1281 (truncation product of W1282X-CFTR); cited from earlier work
T2 construct: expressed in transfected cells
T2 sequence (P13569 1-1281 limits assumed): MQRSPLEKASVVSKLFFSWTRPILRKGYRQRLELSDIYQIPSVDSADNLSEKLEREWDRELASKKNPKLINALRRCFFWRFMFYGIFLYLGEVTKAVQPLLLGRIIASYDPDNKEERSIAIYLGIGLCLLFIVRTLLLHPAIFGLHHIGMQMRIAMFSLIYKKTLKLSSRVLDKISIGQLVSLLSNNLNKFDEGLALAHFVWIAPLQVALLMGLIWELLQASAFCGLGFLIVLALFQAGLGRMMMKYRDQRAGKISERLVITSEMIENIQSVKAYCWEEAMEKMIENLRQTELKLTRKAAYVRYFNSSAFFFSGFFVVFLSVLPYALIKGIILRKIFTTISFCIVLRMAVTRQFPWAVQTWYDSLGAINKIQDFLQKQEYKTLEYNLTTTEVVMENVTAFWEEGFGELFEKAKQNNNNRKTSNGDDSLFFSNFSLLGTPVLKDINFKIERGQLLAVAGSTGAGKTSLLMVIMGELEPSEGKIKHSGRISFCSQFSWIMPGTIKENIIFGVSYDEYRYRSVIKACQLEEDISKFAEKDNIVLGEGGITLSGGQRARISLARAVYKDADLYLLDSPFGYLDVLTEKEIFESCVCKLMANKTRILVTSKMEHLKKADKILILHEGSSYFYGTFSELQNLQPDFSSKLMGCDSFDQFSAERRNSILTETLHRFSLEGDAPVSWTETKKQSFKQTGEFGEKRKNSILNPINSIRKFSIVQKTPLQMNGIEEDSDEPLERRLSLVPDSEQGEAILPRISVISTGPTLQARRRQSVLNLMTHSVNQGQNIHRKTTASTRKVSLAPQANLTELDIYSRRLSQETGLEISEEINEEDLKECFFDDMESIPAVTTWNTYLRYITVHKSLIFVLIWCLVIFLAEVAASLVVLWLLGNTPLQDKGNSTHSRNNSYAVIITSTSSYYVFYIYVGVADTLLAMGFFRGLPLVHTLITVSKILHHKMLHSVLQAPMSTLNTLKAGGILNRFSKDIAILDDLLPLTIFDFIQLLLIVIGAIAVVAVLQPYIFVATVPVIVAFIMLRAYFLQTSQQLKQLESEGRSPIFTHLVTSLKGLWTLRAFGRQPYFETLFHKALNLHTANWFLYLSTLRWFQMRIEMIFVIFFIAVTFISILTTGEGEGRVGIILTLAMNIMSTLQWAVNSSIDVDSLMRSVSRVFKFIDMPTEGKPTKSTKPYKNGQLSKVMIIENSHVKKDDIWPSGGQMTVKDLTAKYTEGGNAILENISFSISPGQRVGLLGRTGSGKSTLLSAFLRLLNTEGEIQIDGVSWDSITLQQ

R560T-CFTR = biological target: T3, R560T-CFTR (Homo sapiens, UniProt P13569, R560T); assay: Short-circuit current in FRT cells expressing R560T-CFTR; assay type: cell-based; conditions: 20 μM forskolin, 5 µM VX-770, 20 µM ASP-11
T3 construct: expressed in transfected cells; host or cells: Fischer rat thyroid (FRT) cells; gift from Drs; Andras Rab and Jeong Hong (Emory University)
T3 sequence (P13569 whole entry R560T): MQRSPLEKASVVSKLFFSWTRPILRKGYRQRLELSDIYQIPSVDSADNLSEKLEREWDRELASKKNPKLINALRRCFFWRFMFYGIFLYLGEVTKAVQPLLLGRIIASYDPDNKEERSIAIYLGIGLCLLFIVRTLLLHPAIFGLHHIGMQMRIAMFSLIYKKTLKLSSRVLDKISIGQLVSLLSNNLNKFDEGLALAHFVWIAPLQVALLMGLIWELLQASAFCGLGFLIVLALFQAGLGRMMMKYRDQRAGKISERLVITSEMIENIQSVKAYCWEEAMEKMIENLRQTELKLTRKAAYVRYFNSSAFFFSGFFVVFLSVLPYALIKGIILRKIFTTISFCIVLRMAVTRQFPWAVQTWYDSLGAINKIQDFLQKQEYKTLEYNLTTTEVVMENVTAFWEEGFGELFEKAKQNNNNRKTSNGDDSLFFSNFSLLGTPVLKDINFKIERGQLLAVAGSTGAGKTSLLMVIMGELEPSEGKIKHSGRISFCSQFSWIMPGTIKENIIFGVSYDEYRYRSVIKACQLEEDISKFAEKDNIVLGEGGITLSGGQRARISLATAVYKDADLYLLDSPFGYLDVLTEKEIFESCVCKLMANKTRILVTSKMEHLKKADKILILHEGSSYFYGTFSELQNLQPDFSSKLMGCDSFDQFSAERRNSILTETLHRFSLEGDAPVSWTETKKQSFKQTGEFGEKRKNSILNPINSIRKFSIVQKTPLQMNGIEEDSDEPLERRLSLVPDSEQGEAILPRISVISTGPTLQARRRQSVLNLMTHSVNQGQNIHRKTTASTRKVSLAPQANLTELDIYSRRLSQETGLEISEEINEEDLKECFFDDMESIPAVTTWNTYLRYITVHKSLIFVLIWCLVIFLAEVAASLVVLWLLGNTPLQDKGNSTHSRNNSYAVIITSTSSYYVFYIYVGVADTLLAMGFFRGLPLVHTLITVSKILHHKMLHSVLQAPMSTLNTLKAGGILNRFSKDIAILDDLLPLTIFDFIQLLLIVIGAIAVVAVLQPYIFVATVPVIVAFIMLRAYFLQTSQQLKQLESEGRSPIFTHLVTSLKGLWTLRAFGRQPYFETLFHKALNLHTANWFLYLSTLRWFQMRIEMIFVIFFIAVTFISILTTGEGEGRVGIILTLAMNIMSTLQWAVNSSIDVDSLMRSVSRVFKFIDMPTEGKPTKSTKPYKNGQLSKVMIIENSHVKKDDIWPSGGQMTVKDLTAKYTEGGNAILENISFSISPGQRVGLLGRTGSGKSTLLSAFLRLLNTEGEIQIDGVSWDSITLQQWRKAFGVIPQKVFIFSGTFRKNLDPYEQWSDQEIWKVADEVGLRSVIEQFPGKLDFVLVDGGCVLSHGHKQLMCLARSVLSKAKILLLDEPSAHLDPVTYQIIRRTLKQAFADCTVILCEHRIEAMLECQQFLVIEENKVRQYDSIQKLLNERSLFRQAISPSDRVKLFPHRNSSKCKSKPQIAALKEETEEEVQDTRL
Method: as §1
(§2) Figure 2 Summary of short-circuit current responses to modulators for CFTR mutants in transfected FRT cells. Responses to indicated CFTR mutants with 20 μM forskolin, 5 µM VX-770, 20 µM ASP-11 (with or without 3 µM VX-809 overnight). For reference, data shown for cells expressing wild type CFTR. Mean ± S.E.M., n = 3.
(§3) Short-circuit current was measured on cells cultured on Snapwell clear permeable supports (Corning) as described[10],[11]. Hemichambers were connected to a DVC-1000 voltage clamp (World Precision Instruments Inc., Sarasota, FL) via Ag/AgCl electrodes and 3 M KCl agar bridges for recording of the short-circuit current. For human airway epithelial cells, symmetrical HCO3^−-buffered solutions (in mM: 120 NaCl, 5 KCl, 1 MgCl2, 1 CaCl2, 5 Hepes, 25 NaHCO3, 10 glucose, pH 7.4) for basolateral and apical side were used. […]

N1303K-CFTR [2] = biological target: T4, N1303K-CFTR (Homo sapiens, UniProt P13569, N1303K); parameters: method as in PMID 27895116, PMID 29903467; conditions: transfected FRT cells expressing N1303K-CFTR; cited from earlier work
T4 construct: expressed in transfected cells
T4 sequence (P13569 whole entry N1303K): as the sequence (P13569 whole entry R560T) above, with T560R, N1303K counted along it

R334W-CFTR = biological target: T5, R334W-CFTR (Homo sapiens, UniProt P13569, R334W); assay: Short-circuit current in FRT cells expressing R334W-CFTR; assay type: cell-based; conditions: 20 μM forskolin, 5 µM VX-770, 20 µM ASP-11
T5 construct: expressed in transfected cells; host or cells: Fischer rat thyroid (FRT) cells; gift from Drs; Andras Rab and Jeong Hong (Emory University)
T5 sequence (P13569 whole entry R334W): as the sequence (P13569 whole entry R560T) above, with R334W, T560R counted along it
Method: as §1, §2, §3

W1282X-CFTR [3] = biological target: T2, W1282X-CFTR; assay: Structure-activity testing of analogs in FRT cells expressing W1282X-CFTR; assay type: cell-based
Method: To establish structure-activity relationships, 240 commercially available piperidinepyridoindole analogs and 160 pyrazoloquinoline analogs were tested in FRT cells expressing W1282X-CFTR. In general, the methoxy substituent on the 4-position (R^3) on the pyridoindole ring increased potency (compare A01 vs A534). N-methylation on the pyridoindole ring abolished activity (compare A534 vs A600). For substituent R^1 on the piperidine ring, substituted benzyl gave greatest activity (A061 and A662). Other R^1 substituents, including sulfonamide (A145), alkyl (A764) and carbocyclic (A714), reduced activity. Changing the benzylic carbon from methylene (CH2) to ketone (C=O) abolished activity (A815, A350 and A956).
For R^3, pyridine (D003), benzyl (D035) and substituted methyl-pyrazole (D086) abolished activity. […] The D123 pyrazoloquinoline with R^3 substituted with thiophene-quinoline heterocycle gave the best potency.

N1303K-CFTR [4] = biological target: T4, N1303K-CFTR; parameters: method as in PMID 30046002; conditions: prior studies; cited from earlier work

SMILES: CCCCn1cc(S(=O)(=O)Nc2ccc(CC)cc2)c2cccnc21 [ASP-11]
- activation of G551D-CFTR (G551D-CFTR): activates G551D-CFTR
- fold increase in chloride current with ASP-11 plus VX-770 compared to VX-770 alone (I1234del-CFTR): 3–9 fold
- increase in chloride current over that produced by a high concentration of VX-770 (W1282X-CFTR [1]): ~ 8 fold
- ASP-11 effect on short-circuit current (R560T-CFTR): absence of ASP-11 effect
- increase in chloride current over that produced by a high concentration of VX-770 (N1303K-CFTR [2]): ~ 8 fold
- ASP-11 effect on short-circuit current (R334W-CFTR): absence of ASP-11 effect

SMILES: COc1ccc2[nH]c3c(c2c1)CCNC31CCN(Cc2ccc(F)cc2F)CC1 [Compound A061]
- Relative Vmax (%) (W1282X-CFTR [3]; Table 1, 100% Vmax corresponds to 20 μM ASP-11): 100%
- EC50 (W1282X-CFTR [3]; Table 1, piperidine-pyridoindole analogs): 2000 nM

SMILES: CC(C)(C)c1cc(C(C)(C)C)c(NC(=O)c2c[nH]c3ccccc3c2=O)cc1O [VX-770, ivacaftor]
- response of N1303K-CFTR to modulator (N1303K-CFTR [4]): not responsive
